Tested on: 598228-144-R-J1-PDC complex spheroid viability
Assay: Anticancer human tumor 598228-144-R-J1-PDC patient-derived serous endometrial adenocarcinoma cell line growth inhibition [GQUAD]
Conditions: for IC50: curve of first compound; for viability, T/C: stronger effect = lower value
Source text: DNA G-quadruplex Stabilizer Agents in Combinations in Complex Spheroids
A high-throughput screen of multi-cell type tumor spheroids was designed to identify active combinations of DNA G-quadruplex stabilizer agents and targeted small molecules. Complex spheroids include a stromal component modeled by human endothelial cells (HUVEC) and fibroblasts modeled by human mesenchymal stem cells (MSCs). The concentration ranges selected for each drug and investigational agent were based upon clinically achievable concentrations if the clinical Cmax of the agent was known.
Compounds. The drugs and investigational agents: pidnarulex (CX-5461; NSC782164), APTO-253 (NSC789042), BRACO-19 (NSC847499), peposertib (NSC802822), ceralasertib (NSC780249), elimusertib (NSC800525), camonsertib (NSC841442), AZD-1390 (NSC803789), olaparib (NSC753686), talazoparib (NSC767125), ART-558 (NSC835418), sotorasib (NSC818433), MRTX-1133 (NSC836407), SN-38 (NSC673596), topotecan (NSC609699), etoposide (NSC141540), doxorubicin (NSC123127), gemcitabine (NSC613327), 5-fluorouracil (NSC19893), paclitaxel (NSC125973), vemurafenib (NSC761431), panobinostat (NSC761190), R-306465 (JNJ-16241199; NSC773264), adavosertib (NSC754352), TP-3654 (NSC805149), carboplatin (NSC241240), KSQ-4279 (NSC840948), and staurosporine (NSC755774) were obtained from the National Cancer Institute (NCI) Developmental Therapeutics Program Chemical Repository (34). The FDA-approved anticancer drug set is available from the NCI Developmental Therapeutics Program. […] The stock solutions were prepared in dimethyl sulfoxide (DMSO, Sigma-Aldrich, St. Louis, MO, cat. D2650) at 800-fold the tested concentration and stored at -70 degrees C prior to their use. All drugs and investigational agents were tested over a range starting from a high concentration at or near the clinical Cmax and decreasing in half-log increments. If the clinical Cmax for an agent had not been determined, the highest concentration tested was 10 microM.
2.3 Cell Culture. All cells were maintained in an incubator at 37 degrees C and 5% CO2 with 95% humidity. The PDC lines were cultured according to standard operating procedures established by the NCI PDMR. All PDCs were thawed and cultured in Matrigel-coated flasks prepared with a working solution of 1X Ham's F-12 nutrient mix, without supplementation (Invitrogen, cat. 11765054), 100 U/mL penicillin-streptomycin (Invitrogen, cat. 15140122), and 2.5% Matrigel (Corning Inc., cat. 354248) for the first three passages. The 857933-349-R-J2-PDC line was cultured in 6C/Colon 1B media, which includes advanced DMEM/F-12 (Thermo Fisher Scientific, cat. 12634028), 10 mM HEPES (Thermo Fisher Scientific, cat. 15630080), 1X GlutaMAX supplement (Thermo Fisher Scientific, cat. 35050061), 0.1 mg/mL primocin (InvivoGen, cat. ant-pm-2), 10% defined fetal bovine serum, heat inactivated (HyClone Laboratories Inc., cat. SH30070.03HI), 50% L-WRN conditioned media (ATCC, cat. CRL-3276), 1.25 mM N-Acetyl-L-cysteine (Sigma-Aldrich, cat. A9165), 10 mM nicotinamide (Sigma-Aldrich, cat. N0636), 1X B-27 supplement (Thermo Fisher Scientific, cat. 17504044), 1X N-2 supplement (Thermo Fisher Scientific, cat. 17502048), 10 microM Y-27632 dihydrochloride (Tocris Bioscience, cat. 1254), and 50 ng/mL human EGF recombinant protein (Thermo Fisher Scientific, cat. PHG0311). The 485176-168-R4-J1-PDC line was cultured in Panc media, which includes all 6C/Colon 1B media components plus 100 ng/mL human FGF-10 (Thermo Fisher Scientific, cat. 100-26), 500 nM SB-431542 (Selleckchem, cat. S1067), and gastrin (Tocris, cat. 3006).
[…]

[1] = second compound 0.0316 µM, first compound 0.0316 µM
[2] = second compound 0.0316 µM, first compound 0.1 µM
[3] = second compound 0.0316 µM, first compound 0.316 µM
[4] = second compound 0.0316 µM, first compound 1 µM
[5] = second compound 0.0316 µM, first compound 3.16 µM
[6] = second compound 0.0316 µM, first compound 10 µM
[7] = second compound 0.1 µM, first compound 0.0316 µM
[8] = second compound 0.1 µM, first compound 0.1 µM
[9] = second compound 0.1 µM, first compound 0.316 µM
[10] = second compound 0.1 µM, first compound 1 µM
[11] = second compound 0.1 µM, first compound 3.16 µM
[12] = second compound 0.1 µM, first compound 10 µM
[13] = second compound 0.316 µM, first compound 0.0316 µM
[14] = second compound 0.316 µM, first compound 0.1 µM
[15] = second compound 0.316 µM, first compound 0.316 µM
[16] = second compound 0.316 µM, first compound 1 µM
[17] = second compound 0.316 µM, first compound 3.16 µM
[18] = second compound 0.316 µM, first compound 10 µM
[19] = second compound 1 µM, first compound 0.0316 µM
[20] = second compound 1 µM, first compound 0.1 µM
[21] = second compound 1 µM, first compound 0.316 µM
[22] = second compound 1 µM, first compound 1 µM
[23] = second compound 1 µM, first compound 3.16 µM
[24] = second compound 1 µM, first compound 10 µM
[25] = second compound 3.16 µM, first compound 0.0316 µM
[26] = second compound 3.16 µM, first compound 0.1 µM
[27] = second compound 3.16 µM, first compound 0.316 µM
[28] = second compound 3.16 µM, first compound 1 µM
[29] = second compound 3.16 µM, first compound 3.16 µM
[30] = second compound 3.16 µM, first compound 10 µM
[31] = second compound 10 µM, first compound 0.0316 µM
[32] = second compound 10 µM, first compound 0.1 µM
[33] = second compound 10 µM, first compound 0.316 µM
[34] = second compound 10 µM, first compound 1 µM
[35] = second compound 10 µM, first compound 3.16 µM
[36] = second compound 10 µM, first compound 10 µM
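Further: spheroids exposed to the agents for one week before reading.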
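Wherever viability, T/C is given: percent of vehicle DMSO control viability so 100% = untreated growth.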

**Q.** Which results are given for `CC(C)(O)C1CCC(Nc2ccc3ncc(-c4cccc(C(F)(F)F)c4)n3n2)CC1` (centres undefined) + CN(C)c1ccc(Nc2c3ccc(NC(=O)CCN4CCCC4)cc3nc3cc(NC(=O)CCN4CCCC4)ccc23)cc1?
**A.** IC50 (second compound 0.0316 µM): 1860 nM; IC50 (second compound 0.1 µM): 1910 nM; IC50 (second compound 0.316 µM): 2100 nM; IC50 (second compound 1 µM): 1890 nM; IC50 (second compound 3.16 µM): 1970 nM; IC50 (second compound 10 µM): 1810 nM; viability, T/C [1]: 112%; viability, T/C [2]: 95.7%; viability, T/C [3]: 79.2%; viability, T/C [4]: 78.5%; viability, T/C [5]: 25.1%; viability, T/C [6]: 27.3%; viability, T/C [7]: 96.3%; viability, T/C [8]: 99%; viability, T/C [9]: 112%; viability, T/C [10]: 81.4%; viability, T/C [11]: 26.6%; viability, T/C [12]: 24.1%; viability, T/C [13]: 98.9%; viability, T/C [14]: 87.8%; viability, T/C [15]: 112%; viability, T/C [16]: 85.3%; viability, T/C [17]: 31%; viability, T/C [18]: 24.1%; viability, T/C [19]: 101%; viability, T/C [20]: 87.9%; viability, T/C [21]: 128%; viability, T/C [22]: 79%; viability, T/C [23]: 29.5%; viability, T/C [24]: 23.4%; viability, T/C [25]: 110%; viability, T/C [26]: 104%; viability, T/C [27]: 107%; viability, T/C [28]: 89.1%; viability, T/C [29]: 22.6%; viability, T/C [30]: 21.8%; viability, T/C [31]: 93.3%; viability, T/C [32]: 75.3%; viability, T/C [33]: 81.7%; viability, T/C [34]: 76.6%; viability, T/C [35]: 24.8%; viability, T/C [36]: 16.6%

**Q.** For `O=C(c1cc(Cc2n[nH]c(=O)c3ccccc23)ccc1F)N1CCN(C(=O)C2CC2)CC1` + CN(C)c1ccc(Nc2c3ccc(NC(=O)CCN4CCCC4)cc3nc3cc(NC(=O)CCN4CCCC4)ccc23)cc1, which IC50 (second compound 0.0316 µM) is on record?
**A.** > 10000 nM

**Q.** What about the IC50 (second compound 0.1 µM) of the same compound?
**A.** > 10000 nM

**Q.** And the IC50 (second compound 0.316 µM)?
**A.** > 10000 nM

**Q.** What about the IC50 (second compound 1 µM) of the same compound?
**A.** > 10000 nM

**Q.** What about the IC50 (second compound 3.16 µM) of the same compound?
**A.** > 10000 nM

**Q.** And the IC50 (second compound 10 µM)?
**A.** > 10000 nM

**Q.** What about the viability, T/C [1] of the same compound?
**A.** 84.9%

**Q.** What about the viability, T/C [2] of the same compound?
**A.** 92.6%

**Q.** What about the viability, T/C [3] of the same compound?
**A.** 79.7%

**Q.** And the viability, T/C [4]?
**A.** 92.9%

**Q.** What about the viability, T/C [5] of the same compound?
**A.** 95%

**Q.** And the viability, T/C [6]?
**A.** 75.8%

**Q.** What about the viability, T/C [7] of the same compound?
**A.** 110%

**Q.** What about the viability, T/C [8] of the same compound?
**A.** 101%

**Q.** And the viability, T/C [9]?
**A.** 91%

**Q.** What about the viability, T/C [10] of the same compound?
**A.** 84.4%

**Q.** And the viability, T/C [11]?
**A.** 87.2%

**Q.** And the viability, T/C [12]?
**A.** 75.1%

**Q.** What about the viability, T/C [13] of the same compound?
**A.** 98%

**Q.** What about the viability, T/C [14] of the same compound?
**A.** 85.3%

**Q.** What about the viability, T/C [15] of the same compound?
**A.** 96.6%

**Q.** What about the viability, T/C [16] of the same compound?
**A.** 91.1%

**Q.** And the viability, T/C [17]?
**A.** 93.9%

**Q.** What about the viability, T/C [18] of the same compound?
**A.** 65.9%

**Q.** And the viability, T/C [19]?
**A.** 82.5%

**Q.** What about the viability, T/C [20] of the same compound?
**A.** 93.9%

**Q.** What about the viability, T/C [21] of the same compound?
**A.** 103%

**Q.** What about the viability, T/C [22] of the same compound?
**A.** 87.5%

**Q.** And the viability, T/C [23]?
**A.** 87.4%

**Q.** And the viability, T/C [24]?
**A.** 54.1%

**Q.** And the viability, T/C [25]?
**A.** 98.8%

**Q.** What about the viability, T/C [26] of the same compound?
**A.** 91.8%

**Q.** And the viability, T/C [27]?
**A.** 92.8%

**Q.** And the viability, T/C [28]?
**A.** 88.3%

**Q.** And the viability, T/C [29]?
**A.** 92.9%

**Q.** What about the viability, T/C [30] of the same compound?
**A.** 68.3%

**Q.** What about the viability, T/C [31] of the same compound?
**A.** 76.4%

**Q.** And the viability, T/C [32]?
**A.** 89.3%

**Q.** And the viability, T/C [33]?
**A.** 91.9%

**Q.** What about the viability, T/C [34] of the same compound?
**A.** 73.8%

**Q.** What about the viability, T/C [35] of the same compound?
**A.** 89.7%

**Q.** What about the viability, T/C [36] of the same compound?
**A.** 50.3%

Reference: PubChem BioAssay AID2060506 (Molecular Pharmacology Branch, DTP, NCI, 2025)
